ChEMBL document CHEMBL1201862, “PubChem BioAssay data set” (2004)
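These data come from cells grown in 96-well plates and exposed to compound for 48 hours at five concentrations. At the GI50, growth is halved.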 Active and inactive are the calls of the source. No stated cut-off is given here; in the data, active = GI50 up to about 1.1 µM and inactive = higher.

What was measured:
Test in all cases: DTP human tumour cell line panel, 48 h
HT-29 = system: HT-29
EKVX = system: EKVX
ACHN = system: ACHN
OVCAR-3 = system: OVCAR-3
IGROV-1 = system: IGROV-1
TK-10 = system: TK-10
NCI-H522 = system: NCI-H522
A549 = system: A549
U-251 = system: U-251
NCI-H226 = system: NCI-H226
SR = system: SR
SN12C = system: SN12C
DU-145 = system: DU-145
PC-3 = system: PC-3
UO-31 = system: UO-31
SF-295 = system: SF-295
RXF 393 = system: RXF 393
HCT-116 = system: HCT-116
MDA-MB-231 = system: MDA-MB-231

Measured: GI50

O=C(O)CC(NC(=O)C(F)(F)F)C(=O)NC1Cc2ccccc2OC1=O (stereo not drawn)
inactive: HT-29 > 100 µM | EKVX > 100 µM | ACHN > 100 µM | OVCAR-3 > 100 µM | IGROV-1 > 100 µM | TK-10 > 100 µM | NCI-H522 > 100 µM | A549 > 100 µM | U-251 > 100 µM | NCI-H226 > 100 µM | SR > 100 µM | SN12C > 100 µM | DU-145 > 100 µM | PC-3 > 100 µM | UO-31 > 100 µM | SF-295 > 100 µM | RXF 393 > 100 µM

CCOC(=O)/C(=C\NCC(OCC)OCC)c1nc2ccccc2[nH]1
inactive: HT-29 22.4 µM | EKVX 27.6 µM | ACHN 35.2 µM | HCT-116 29.6 µM | OVCAR-3 22 µM | IGROV-1 29 µM | TK-10 31.3 µM | NCI-H522 21.4 µM | A549 42.9 µM | U-251 35.5 µM | NCI-H226 37.7 µM | SR 18.6 µM | SN12C 39.2 µM | DU-145 43.7 µM | PC-3 24 µM | UO-31 13.3 µM | SF-295 32.1 µM | RXF 393 35.3 µM

CC(C)(C)[Si](C)(C)Oc1ccc(C2CNC(=O)C23CCC(=O)N3Cc2ccccc2)cc1 (stereo not drawn)
inactive: HT-29 12.2 µM | EKVX 6.68 µM | ACHN 15 µM | HCT-116 22.2 µM | OVCAR-3 12.5 µM | IGROV-1 15.3 µM | TK-10 13.2 µM | NCI-H522 10.7 µM | A549 10 µM | U-251 12.5 µM | NCI-H226 18.9 µM | SR 7.96 µM | SN12C 15 µM | DU-145 16.7 µM | PC-3 15.2 µM | UO-31 16 µM | SF-295 13.9 µM | RXF 393 10.7 µM

O=C(NC(=O)c1ccccc1)OC(c1ccccc1)C1CO1 (stereo not drawn)
inactive: HT-29 > 100 µM | EKVX > 100 µM | ACHN > 100 µM | HCT-116 > 100 µM | OVCAR-3 > 100 µM | IGROV-1 > 100 µM | TK-10 > 100 µM | NCI-H522 > 100 µM | A549 > 100 µM | U-251 > 100 µM | NCI-H226 > 100 µM | SN12C > 100 µM | MDA-MB-231 > 100 µM | DU-145 > 100 µM | PC-3 > 100 µM | UO-31 > 100 µM | SF-295 > 100 µM | RXF 393 > 100 µM

COC(=O)C1=C(O)C(C(=O)OC)[C@]2(O)[C@H](C(=O)OC)[C@H]1C[C@@H](c1ccc(OC)cc1)[C@H]2C(=O)OC (stereo partly drawn)
inactive: HT-29 29.8 µM | EKVX 26.3 µM | ACHN 18 µM | HCT-116 16.3 µM | IGROV-1 34.6 µM | TK-10 34.3 µM | NCI-H522 2.36 µM | A549 20.5 µM | U-251 24.5 µM | NCI-H226 30.3 µM | SR 16.1 µM | SN12C 21.5 µM | MDA-MB-231 30 µM | UO-31 11.3 µM | SF-295 44.6 µM | RXF 393 16 µM

COC(=O)C(CSSC[C@H](N/C(C)=C/C(C)=O)C(=O)OC)N/C(C)=C/C(C)=O (stereo partly drawn)
active: ACHN < 0.01 µM
inactive: HT-29 38.7 µM | EKVX 16.4 µM | HCT-116 27 µM | OVCAR-3 4.17 µM | IGROV-1 36.7 µM | TK-10 2.66 µM | NCI-H522 13.9 µM | A549 99.8 µM | U-251 33.3 µM | NCI-H226 > 100 µM | SN12C 48.8 µM | MDA-MB-231 > 100 µM | DU-145 25.7 µM | PC-3 54.1 µM | UO-31 47.5 µM | SF-295 35.2 µM | RXF 393 15.1 µM

O=C1c2ccccc2C2(c3ccc(F)cc3)NCCN12 (stereo not drawn)
inactive: HT-29 > 100 µM | EKVX > 100 µM | ACHN > 100 µM | HCT-116 > 100 µM | OVCAR-3 > 100 µM | IGROV-1 > 100 µM | TK-10 > 100 µM | NCI-H522 > 100 µM | A549 > 100 µM | U-251 > 100 µM | NCI-H226 > 100 µM | SN12C > 100 µM | MDA-MB-231 > 100 µM | DU-145 > 100 µM | PC-3 > 100 µM | UO-31 > 100 µM | SF-295 > 100 µM | RXF 393 > 100 µM

Cc1cc2c(cc1C)C(=O)/C(=C/c1ccccc1C(=O)O)C2
inactive: HT-29 39.1 µM | EKVX 50.7 µM | ACHN 55 µM | HCT-116 37.9 µM | OVCAR-3 31.7 µM | IGROV-1 > 100 µM | TK-10 > 100 µM | NCI-H522 65.6 µM | A549 67.5 µM | U-251 22.9 µM | NCI-H226 15.3 µM | SR 21.2 µM | SN12C 45.2 µM | DU-145 > 100 µM | PC-3 33.9 µM | UO-31 50.6 µM | SF-295 32.5 µM | RXF 393 > 100 µM

CC1CCCC2=C1C(c1ccc(Cl)cc1)n1c(s/c(=C\c3ccc(Cl)cc3)c1=O)=N2 (stereo not drawn)
inactive: HT-29 > 100 µM | EKVX > 100 µM | ACHN > 100 µM | HCT-116 > 100 µM | IGROV-1 > 100 µM | TK-10 > 100 µM | A549 > 100 µM | U-251 > 100 µM | SN12C > 100 µM | MDA-MB-231 > 100 µM | DU-145 > 100 µM | PC-3 > 100 µM | UO-31 > 100 µM | RXF 393 > 100 µM

N#Cc1nc(C#N)c(NC(=O)c2ccccc2C(=O)O)[nH]1
inactive: HT-29 > 100 µM | EKVX > 100 µM | ACHN > 100 µM | HCT-116 > 100 µM | OVCAR-3 > 100 µM | IGROV-1 > 100 µM | TK-10 > 100 µM | NCI-H522 > 100 µM | A549 > 100 µM | U-251 > 100 µM | NCI-H226 > 100 µM | SN12C > 100 µM | MDA-MB-231 > 100 µM | DU-145 > 100 µM | PC-3 > 100 µM | UO-31 > 100 µM | SF-295 > 100 µM

CC(C)(C)OC(=O)C1/C(=C/CBr)CN1C(=O)OC(C)(C)C (stereo not drawn)
inactive: HT-29 23.7 µM | EKVX 18 µM | ACHN 16.7 µM | HCT-116 11.4 µM | OVCAR-3 14.7 µM | IGROV-1 5.5 µM | TK-10 16.9 µM | A549 18.9 µM | SN12C 12.6 µM | PC-3 14.3 µM | UO-31 18.8 µM | SF-295 15.9 µM

CC(CN(C)C)C(=O)c1ccccc1C(=O)O (stereo not drawn)
inactive: HT-29 38.7 µM | EKVX 51.1 µM | ACHN 35.6 µM | HCT-116 32.1 µM | OVCAR-3 14.7 µM | IGROV-1 44 µM | TK-10 19.5 µM | NCI-H522 10.7 µM | A549 41.1 µM | U-251 16.1 µM | SN12C 25.9 µM | MDA-MB-231 18.8 µM | DU-145 30.2 µM | PC-3 23.9 µM | UO-31 47.2 µM | SF-295 41.9 µM | RXF 393 39.4 µM

Cc1[nH]c2ncn(/N=C/c3ccccc3)c(=N)c2c1Cc1ccccc1
inactive: HT-29 > 100 µM | EKVX 69.8 µM | ACHN > 100 µM | HCT-116 87.3 µM | OVCAR-3 > 100 µM | IGROV-1 > 100 µM | TK-10 > 100 µM | A549 > 100 µM | U-251 98.6 µM | NCI-H226 95.5 µM | SN12C > 100 µM | MDA-MB-231 58.1 µM | DU-145 > 100 µM | PC-3 45.7 µM | UO-31 > 100 µM | SF-295 > 100 µM | RXF 393 > 100 µM

Cc1cc(C)nc(NS(=O)(=O)c2ccc(Nc3c4ccccc4nc4c(C(=O)Nc5ccc(S(=O)(=O)Nc6cc(C)on6)cc5)ccc(Cl)c34)cc2)n1
inactive: HT-29 23.4 µM | EKVX 25.5 µM | ACHN 36.2 µM | HCT-116 17.7 µM | OVCAR-3 17 µM | TK-10 76 µM | NCI-H522 21.5 µM | U-251 15.9 µM | SR 21.1 µM | SN12C 21.3 µM | UO-31 20.8 µM | SF-295 20.7 µM | RXF 393 14.8 µM

CCc1ccc(Cc2ccc(CC)c(NC(=O)C(=O)Cc3nc4ccccc4nc3C)c2CC)c(CC)c1NC(=O)C(=O)Cc1nc2ccccc2nc1C
inactive: EKVX 45.9 µM | ACHN 61.2 µM | HCT-116 52.5 µM | OVCAR-3 15 µM | IGROV-1 > 100 µM | TK-10 > 100 µM | NCI-H522 26.4 µM | A549 > 100 µM | U-251 49.7 µM | UO-31 17.7 µM | RXF 393 41.4 µM

C/C(=N\NS(=O)(=O)c1ccc(C)cc1)C(CN1CCCCC1)C(c1ccccc1)c1c(O)c2ccccc2oc1=O (stereo not drawn)
inactive: HT-29 > 100 µM | EKVX > 100 µM | ACHN > 100 µM | HCT-116 > 100 µM | OVCAR-3 > 100 µM | IGROV-1 > 100 µM | TK-10 > 100 µM | NCI-H522 80.9 µM | A549 > 100 µM | U-251 > 100 µM | NCI-H226 > 100 µM | SR 57 µM | SN12C > 100 µM | UO-31 > 100 µM | SF-295 > 100 µM | RXF 393 39.6 µM
